Patent publication US7696161B2, “Exendin agonist compounds” (Amylin Pharmaceuticals, Inc., priority 1997, dated 2010)

How the values were obtained:
[1] = molecular target: cyclase (RINm5f membranes); assay: Cyclase activation study (cAMP by SPA immunoassay, membranes); format: biochemical; settings: cAMP in membranes, 20 minutes incubation at 37° C.
Experimental: GLP-1(7-36) [NH2] was purchased from Bachem (Torrance, Calif.). All other peptides were prepared using synthesis methods such as those described therein. All chemicals were of the highest commercial grade. The cAMP SPA immunoassay was purchased from Amersham. The radioligands were purchased from New England Nuclear (Boston, Mass.). […] Cells were grown to confluence then harvested and homogenized using on a Polytron homogenizer. Cell homogenates were stored frozen at −70° C. until used. […] Membranes and peptides were combined in […] of assay buffer in 96 well filter-bottom plates (Millipore Corp., Bedford, Mass.). […] Supernatant cAMP contents were quantitated by SPA immunoassay. […] The biological activity of a particular sample was expressed as an EC50 value, calculated as described above.

C57BLKS/J-m-db mice = assay: Determination of blood glucose levels in db/db mice; format: in vivo; settings: 1 μg subcutaneous, plasma glucose one hour after injection vs baseline

Row | SMILES | EC50 [1] | % drop in glucose (C57BLKS/J-m-db mice)
1 | CC[C@H](C)[C@H](NC(=O)[C@H](Cc1ccccc1)NC(=O)[C@H](CC(C)C)NC(=O)[C@H](CCCNC(=N)N)NC(=O)[C@@H](NC(=O)[C@H](C)NC(=O)[C@H](CCC(=O)O)NC(=O)[C@H](CCC(=O)O)NC(=O)[C@H](CCC(=O)O)NC(=O)[C@H](CC(C)C)NC(=O)[C@H](CCC(N)=O)NC(=O)[C@H](CCCCN)NC(=O)[C@H](CO)NC(=O)[C@H](CC(C)C)NC(=O)[C@H](CC(=O)O)NC(=O)[C@H](CO)NC(=O)[C@@H](NC(=O)[C@H](Cc1ccccc1)NC(=O)[C@@H](NC(=O)CNC(=O)[C@H](CCC(=O)O)NC(=O)[C@H](C)NC(=O)[C@@H](N)Cc1c[nH]cn1)[C@@H](C)O)[C@@H](C)O)C(C)C)C(=O)N[C@@H](CCC(=O)O)C(=O)N[C@@H](Cc1ccccc1)C(=O)N[C@@H](CC(C)C)C(=O)N[C@@H](CCCCN)C(=O)N[C@@H](CC(N)=O)C(N)=O [Compound 4] | 0.22 nM | 27%
2 | CC[C@H](C)[C@H](NC(=O)[C@H](Cc1ccccc1)NC(=O)[C@H](CC(C)C)NC(=O)[C@H](CCCNC(=N)N)NC(=O)[C@@H](NC(=O)[C@H](C)NC(=O)[C@H](CCC(=O)O)NC(=O)[C@H](CCC(=O)O)NC(=O)[C@H](CCC(=O)O)NC(=O)[C@H](CC(C)C)NC(=O)[C@H](CCC(N)=O)NC(=O)[C@H](CCCCN)NC(=O)[C@H](CO)NC(=O)[C@H](CC(C)C)NC(=O)[C@H](CC(=O)O)NC(=O)[C@H](CO)NC(=O)[C@@H](NC(=O)[C@H](Cc1ccccc1)NC(=O)[C@H](C)NC(=O)CNC(=O)[C@H](CCC(=O)O)NC(=O)CNC(=O)[C@@H](N)Cc1c[nH]cn1)[C@@H](C)O)C(C)C)C(=O)N[C@@H](CCC(=O)O)C(=O)N[C@@H](Cc1ccccc1)C(=O)N[C@@H](CC(C)C)C(=O)N[C@@H](CCCCN)C(=O)N[C@@H](CC(N)=O)C(N)=O [Compound 5] | 9.85 nM | 47%
3 | CC[C@H](C)[C@H](NC(=O)[C@H](Cc1ccccc1)NC(=O)[C@H](CC(C)C)NC(=O)[C@H](CCCNC(=N)N)NC(=O)[C@@H](NC(=O)[C@H](C)NC(=O)[C@H](CCC(=O)O)NC(=O)[C@H](CCC(=O)O)NC(=O)[C@H](CCC(=O)O)NC(=O)[C@H](CC(C)C)NC(=O)[C@H](CCC(N)=O)NC(=O)[C@H](CCCCN)NC(=O)[C@H](CO)NC(=O)[C@H](CC(C)C)NC(=O)[C@H](CC(=O)O)NC(=O)[C@H](CO)NC(=O)[C@@H](NC(=O)[C@H](C)NC(=O)[C@@H](NC(=O)CNC(=O)[C@H](CCC(=O)O)NC(=O)CNC(=O)[C@@H](N)Cc1c[nH]cn1)[C@@H](C)O)[C@@H](C)O)C(C)C)C(=O)N[C@@H](CCC(=O)O)C(=O)N[C@@H](Cc1ccccc1)C(=O)N[C@@H](CC(C)C)C(=O)N[C@@H](CCCCN)C(=O)N[C@@H](CC(N)=O)C(N)=O [Compound 6] | 79.4 nM | 40%
4 | CC[C@H](C)[C@H](NC(=O)[C@H](Cc1ccccc1)NC(=O)[C@H](CC(C)C)NC(=O)[C@H](CCCNC(=N)N)NC(=O)[C@@H](NC(=O)[C@H](C)NC(=O)[C@H](CCC(=O)O)NC(=O)[C@H](CCC(=O)O)NC(=O)[C@H](CCC(=O)O)NC(=O)[C@H](CC(C)C)NC(=O)[C@H](CCC(N)=O)NC(=O)[C@H](CCCCN)NC(=O)[C@H](CO)NC(=O)[C@H](CC(C)C)NC(=O)[C@H](CC(=O)O)NC(=O)[C@H](C)NC(=O)[C@@H](NC(=O)[C@H](Cc1ccccc1)NC(=O)[C@@H](NC(=O)CNC(=O)[C@H](CCC(=O)O)NC(=O)CNC(=O)[C@@H](N)Cc1c[nH]cn1)[C@@H](C)O)[C@@H](C)O)C(C)C)C(=O)N[C@@H](CCC(=O)O)C(=O)N[C@@H](Cc1ccccc1)C(=O)N[C@@H](CC(C)C)C(=O)N[C@@H](CCCCN)C(=O)N[C@@H](CC(N)=O)C(N)=O [Compound 7] | 63.6 nM | 31%
5 | CC[C@H](C)[C@H](NC(=O)[C@H](Cc1ccccc1)NC(=O)[C@H](CC(C)C)NC(=O)[C@H](CCCNC(=N)N)NC(=O)[C@@H](NC(=O)[C@H](C)NC(=O)[C@H](CCC(=O)O)NC(=O)[C@H](CCC(=O)O)NC(=O)[C@H](CCC(=O)O)NC(=O)[C@H](CC(C)C)NC(=O)[C@H](CCC(N)=O)NC(=O)[C@H](CCCCN)NC(=O)[C@H](CO)NC(=O)[C@H](C)NC(=O)[C@H](CC(=O)O)NC(=O)[C@H](CO)NC(=O)[C@@H](NC(=O)[C@H](Cc1ccccc1)NC(=O)[C@@H](NC(=O)CNC(=O)[C@H](CCC(=O)O)NC(=O)CNC(=O)[C@@H](N)Cc1c[nH]cn1)[C@@H](C)O)[C@@H](C)O)C(C)C)C(=O)N[C@@H](CCC(=O)O)C(=O)N[C@@H](Cc1ccccc1)C(=O)N[C@@H](CC(C)C)C(=O)N[C@@H](CCCCN)C(=O)N[C@@H](CC(N)=O)C(N)=O [Compound 8] | 6.8 nM | 44%
6 | CC[C@H](C)[C@H](NC(=O)[C@H](Cc1ccccc1)NC(=O)[C@H](CC(C)C)NC(=O)[C@H](CCCNC(=N)N)NC(=O)[C@@H](NC(=O)[C@H](C)NC(=O)[C@H](CCC(=O)O)NC(=O)[C@H](CCC(=O)O)NC(=O)[C@H](CCC(=O)O)NC(=O)[C@H](CC(C)C)NC(=O)[C@H](CCC(N)=O)NC(=O)[C@H](CCCCN)NC(=O)[C@H](C)NC(=O)[C@H](CC(C)C)NC(=O)[C@H](CC(=O)O)NC(=O)[C@H](CO)NC(=O)[C@@H](NC(=O)[C@H](Cc1ccccc1)NC(=O)[C@@H](NC(=O)CNC(=O)[C@H](CCC(=O)O)NC(=O)CNC(=O)[C@@H](N)Cc1c[nH]cn1)[C@@H](C)O)[C@@H](C)O)C(C)C)C(=O)N[C@@H](CCC(=O)O)C(=O)N[C@@H](Cc1ccccc1)C(=O)N[C@@H](CC(C)C)C(=O)N[C@@H](CCCCN)C(=O)N[C@@H](CC(N)=O)C(N)=O [Compound 9] | 1.68 nM | 41%
7 | CC[C@H](C)[C@H](NC(=O)[C@H](Cc1ccccc1)NC(=O)[C@H](CC(C)C)NC(=O)[C@H](CCCNC(=N)N)NC(=O)[C@@H](NC(=O)[C@H](C)NC(=O)[C@H](CCC(=O)O)NC(=O)[C@H](CCC(=O)O)NC(=O)[C@H](CCC(=O)O)NC(=O)[C@H](CC(C)C)NC(=O)[C@H](C)NC(=O)[C@H](CCCCN)NC(=O)[C@H](CO)NC(=O)[C@H](CC(C)C)NC(=O)[C@H](CC(=O)O)NC(=O)[C@H](CO)NC(=O)[C@@H](NC(=O)[C@H](Cc1ccccc1)NC(=O)[C@@H](NC(=O)CNC(=O)[C@H](CCC(=O)O)NC(=O)CNC(=O)[C@@H](N)Cc1c[nH]cn1)[C@@H](C)O)[C@@H](C)O)C(C)C)C(=O)N[C@@H](CCC(=O)O)C(=O)N[C@@H](Cc1ccccc1)C(=O)N[C@@H](CC(C)C)C(=O)N[C@@H](CCCCN)C(=O)N[C@@H](CC(N)=O)C(N)=O [Compound 11] | 0.48 nM | 40%
8 | CC[C@H](C)[C@H](NC(=O)[C@H](Cc1ccccc1)NC(=O)[C@H](CC(C)C)NC(=O)[C@H](CCCNC(=N)N)NC(=O)[C@@H](NC(=O)[C@H](C)NC(=O)[C@H](CCC(=O)O)NC(=O)[C@H](CCC(=O)O)NC(=O)[C@H](CCC(=O)O)NC(=O)[C@H](C)NC(=O)[C@H](CCC(N)=O)NC(=O)[C@H](CCCCN)NC(=O)[C@H](CO)NC(=O)[C@H](CC(C)C)NC(=O)[C@H](CC(=O)O)NC(=O)[C@H](CO)NC(=O)[C@@H](NC(=O)[C@H](Cc1ccccc1)NC(=O)[C@@H](NC(=O)CNC(=O)[C@H](CCC(=O)O)NC(=O)CNC(=O)[C@@H](N)Cc1c[nH]cn1)[C@@H](C)O)[C@@H](C)O)C(C)C)C(=O)N[C@@H](CCC(=O)O)C(=O)N[C@@H](Cc1ccccc1)C(=O)N[C@@H](CC(C)C)C(=O)N[C@@H](CCCCN)C(=O)N[C@@H](CC(N)=O)C(N)=O [Compound 12] | 15.6 nM | 53%
9 | CC[C@H](C)[C@H](NC(=O)[C@H](Cc1ccccc1)NC(=O)[C@H](CC(C)C)NC(=O)[C@H](CCCNC(=N)N)NC(=O)[C@@H](NC(=O)[C@H](C)NC(=O)[C@H](CCC(=O)O)NC(=O)[C@H](C)NC(=O)[C@H](CCC(=O)O)NC(=O)[C@H](CC(C)C)NC(=O)[C@H](CCC(N)=O)NC(=O)[C@H](CCCCN)NC(=O)[C@H](CO)NC(=O)[C@H](CC(C)C)NC(=O)[C@H](CC(=O)O)NC(=O)[C@H](CO)NC(=O)[C@@H](NC(=O)[C@H](Cc1ccccc1)NC(=O)[C@@H](NC(=O)CNC(=O)[C@H](CCC(=O)O)NC(=O)CNC(=O)[C@@H](N)Cc1c[nH]cn1)[C@@H](C)O)[C@@H](C)O)C(C)C)C(=O)N[C@@H](CCC(=O)O)C(=O)N[C@@H](Cc1ccccc1)C(=O)N[C@@H](CC(C)C)C(=O)N[C@@H](CCCCN)C(=O)N[C@@H](CC(N)=O)C(N)=O [Compound 14] | 1.11 nM | 54%
10 | CC[C@H](C)[C@H](NC(=O)[C@H](Cc1ccccc1)NC(=O)[C@H](CC(C)C)NC(=O)[C@H](CCCNC(=N)N)NC(=O)[C@@H](NC(=O)[C@H](C)NC(=O)[C@H](C)NC(=O)[C@H](CCC(=O)O)NC(=O)[C@H](CCC(=O)O)NC(=O)[C@H](CC(C)C)NC(=O)[C@H](CCC(N)=O)NC(=O)[C@H](CCCCN)NC(=O)[C@H](CO)NC(=O)[C@H](CC(C)C)NC(=O)[C@H](CC(=O)O)NC(=O)[C@H](CO)NC(=O)[C@@H](NC(=O)[C@H](Cc1ccccc1)NC(=O)[C@@H](NC(=O)CNC(=O)[C@H](CCC(=O)O)NC(=O)CNC(=O)[C@@H](N)Cc1c[nH]cn1)[C@@H](C)O)[C@@H](C)O)C(C)C)C(=O)N[C@@H](CCC(=O)O)C(=O)N[C@@H](Cc1ccccc1)C(=O)N[C@@H](CC(C)C)C(=O)N[C@@H](CCCCN)C(=O)N[C@@H](CC(N)=O)C(N)=O [Compound 15] | 1.05 nM | 45%
